Test results published in patent US20230192700A1, “PYRAZOLOPYRAZINES ACTING ON CANCERS VIA INHIBITION OF CDK12” (Bayer Aktiengesellschaft, priority 2020, published 2023).

Target: T1, CDK12/CyclinK (Homo sapiens, UniProt Q9NYV4)
T1 construct: His-CDK12 (aa Q696-S1082); made in house; host or cells: Hi-5 insect cells (baculovirus co-infection with CycK and yeast CAK1)
Test: CDK12/CycK high ATP kinase assay (TR-FRET)
Type: biochemical
Details: 2 mM ATP (high ATP); median; read-out: CDK12/CyclinK, 2 mM ATP (high ATP), IC50 - [mol/l] (median)
Description: 2.2 CDK12/CycK high ATP Kinase Assay
In the context of the present invention, the term “IC50 CDK12 hATP” refers to the ICso values obtained according to the assay described in this section (2.2) herein below, i.e. the IC50 values for the inhibition of CDK12 at high ATP.
CDK12/CycK -inhibitory activity of compounds of the present invention at 2 millimol/L adenosine-tri-phosphate (ATP) was quantified employing the TR-FRET (TR-FRET=Time Resolved Fluorescence Energy Transfer) based CDK12/CycK activity inhibition assay as described in the following paragraphs.
A complex of human recombinant CDK12 and human recombinant CycK (both N-terminally His-tagged, expression and purification as described above) was used as enzyme. As substrate for the kinase reaction biotinylated peptide biotin-Ahx-KFELLPTPPLSPSRRSGL (C-terminus in amid form) was used which can be purchased e.g. form the company Biosyntan (Berlin-Buch, Germany).
For the assay 50 nanoL of a 100 fold concentrated solution of the test compound in DMSO was pipetted into either a black low volume 384 well microtiter plate or a black 1536 well microtiter plate (both Greiner Bio-One, Frickenhausen, Germany), 2 microL of a solution of CDK12/CycK in aqueous assay buffer [25 millimol/L HEPES pH 7.5, 20 millimol/L MgCl2, 5 millimol/L β-glycerophosphate, 2 millimol/L EGTA, 1.0 millimol/L dithiothreitol, 0.01% (v/v) Nonidet-P40 (Sigma), 0.01% (w/v) bovine serum albumin] were added and the mixture was incubated for 15 min at 22° C. to allow pre-binding of the test compounds to the enzyme before the start of the kinase reaction. Then the kinase reaction was started by the addition of 3 microL of a solution ATP (3.33 millimol/L=>final conc. in the 5 microL assay volume is 2 millimol/L) and substrate (1.67 micromol/L=>final conc. in the 5 microL assay volume is 1 micromol/L) in assay buffer and the resulting mixture was incubated for a reaction time of 60 min at 22° C. The concentration of CDK12/CycK was adjusted depending of the activity of the enzyme lot and was chosen appropriate to have the assay in the linear range, typical concentrations were about 0.75 nanomol/L. The reaction was stopped by the addition of 3 microL of a solution of TR-FRET detection reagents (125 nanomol/L streptavidine-XL665 [Cisbio Bioassays, Codolet, France] and 0.67 nanomol/L anti-Phospho-c-Myc (Ser 62) (E1J4K)-antibody from Cell Signalling [#13748] and 2 nanomol/L LANCE EU-W1024 labeled anti-rabbit IgG antibody [Perkin-Elmer, product no. 0083]) in an aqueous EDTA-solution (133 millimol/L EDTA, 0.27% (w/v) bovine serum albumin in 66.7 millimol/L HEPES pH 7.5).
The resulting mixture was incubated 1 h at 22° C. to allow the formation of complex between the phosphorylated biotinylated peptide and the detection reagents. Subsequently the amount of phosphorylated substrate was evaluated by measurement of the resonance energy transfer from the Eu-chelate to the streptavidine-XL. Therefore, the fluorescence emissions at 620 nm and 665 nm after excitation at 350 nm was measured in a TR-FRET reader, e.g. a Pherastar FS (BMG Labtechnologies, Offenburg, Germany) or a Viewlux (Perkin-Elmer). The ratio of the emissions at 665 nm and at […] was taken as the measure for the amount of phosphorylated substrate. The data were normalised (enzyme reaction without inhibitor=0% inhibition, all other assay components but no enzyme=100% inhibition).

T1 sequence (Q9NYV4 with tags, fused parts or gaps): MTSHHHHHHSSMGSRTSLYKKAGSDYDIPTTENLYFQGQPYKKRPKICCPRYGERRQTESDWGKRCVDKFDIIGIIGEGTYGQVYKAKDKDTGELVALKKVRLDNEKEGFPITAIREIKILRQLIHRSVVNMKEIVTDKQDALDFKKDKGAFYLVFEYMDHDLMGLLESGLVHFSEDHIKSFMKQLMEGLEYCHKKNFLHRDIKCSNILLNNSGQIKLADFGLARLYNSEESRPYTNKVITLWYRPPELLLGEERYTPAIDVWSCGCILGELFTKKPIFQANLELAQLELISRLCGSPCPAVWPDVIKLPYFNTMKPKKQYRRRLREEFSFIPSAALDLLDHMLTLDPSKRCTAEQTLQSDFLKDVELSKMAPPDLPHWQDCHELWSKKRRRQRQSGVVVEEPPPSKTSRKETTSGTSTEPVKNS
T1 sequence (O75909 with tags, fused parts or gaps partner limits assumed): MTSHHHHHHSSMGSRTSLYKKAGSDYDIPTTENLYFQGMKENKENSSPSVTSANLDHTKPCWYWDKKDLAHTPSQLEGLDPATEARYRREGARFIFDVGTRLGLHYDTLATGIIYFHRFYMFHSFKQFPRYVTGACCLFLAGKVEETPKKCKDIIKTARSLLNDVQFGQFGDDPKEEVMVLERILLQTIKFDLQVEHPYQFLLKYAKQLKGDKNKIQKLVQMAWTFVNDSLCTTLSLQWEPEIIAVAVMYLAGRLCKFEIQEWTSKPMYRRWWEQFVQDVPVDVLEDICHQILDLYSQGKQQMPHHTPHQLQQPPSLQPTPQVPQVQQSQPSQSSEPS

Structure (SMILES) | IC50 [µM]
CC(C)(C)OC(=O)N1CCC(n2nc(NCc3nc4ccccc4[nH]3)c3ncc(C4CC4)nc32)CC1 [Example 11, tert-butyl 4-(3-{[(1H-benzimidazol-2-yl)methyl]amino}-6-cyclopropyl-1H-pyrazolo[3,4-b]pyrazin-1-yl)piperidine-1-carboxylate] | > 20
O[C@H]1CC[C@H](n2nc(NCc3nc4cc(F)ccc4[nH]3)c3ncc(C4CC4)nc32)CC1 [Example 56, trans-4-(6-cyclopropyl-3-{[(5-fluoro-1H-benzimidazol-2-yl)methyl]amino}-1H-pyrazolo[3,4-b]pyrazin-1-yl)cyclohexan-1-ol] | > 18.1
O[C@H]1CC[C@@H](n2nc(NCc3nc4ccccc4[nH]3)c3ncc(C4CC4)nc32)CC1 [Example 51, cis-4-(3-{[(1H-benzimidazol-2-yl)methyl]amino}-6-cyclopropyl-1H-pyrazolo[3,4-b]pyrazin-1-yl)cyclohexan-1-ol] | > 20
c1ccc2[nH]c(CNc3nn(C4CCNCC4)c4nc(C5CC5)cnc34)nc2c1 [Example 12, N-[(1H-benzimidazol-2-yl)methyl]-6-cyclopropyl-1-(piperidin-4-yl)-1H-pyrazolo[3,4-b]pyrazin-3-amine] | > 20
Cc1cccc2[nH]c(CNc3nn(C4CCN(C)CC4)c4nc(C5CC5)cnc34)nc12 [Example 8, 6-cyclopropyl-N-[(4-methyl-1H-benzimidazol-2-yl)methyl]-1-(1-methylpiperidin-4-yl)-1H-pyrazolo[3,4-b]pyrazin-3-amine] | > 20
Cc1ccc2[nH]c(CNc3nn(C4CCN(C)CC4)c4nc(C5CC5)cnc34)nc2c1 [Example 6, 6-cyclopropyl-N-[(5-methyl-1H-benzimidazol-2-yl)methyl]-1-(1-methylpiperidin-4-yl)-1H-pyrazolo[3,4-b]pyrazin-3-amine] | > 20
CC(CCN(C)C)n1nc(NCc2nc3ccccc3[nH]2)c2ncc(C3CC3)nc21 (single isomer, unassigned) [Example 63, (+) or (−)-N-[(1H-benzimidazol-2-yl)methyl]-6-cyclopropyl-1-[4-(dimethylamino)butan-2-yl]-1H-pyrazolo[3,4-b]pyrazin-3-amine] | > 20
CC(CCN(C)C)n1nc(NCc2nc3ccccc3[nH]2)c2ncc(C3CC3)nc21 (racemic) [Example 62, (±)-N-[(1H-benzimidazol-2-yl)methyl]-6-cyclopropyl-1-[4-(dimethylamino)butan-2-yl]-1H-pyrazolo[3,4-b]pyrazin-3-amine] | > 20
CN1CCC(n2nc(NCc3nc4cc(SC(F)(F)F)ccc4[nH]3)c3ncc(C4CC4)nc32)CC1 [Example 27, 6-cyclopropyl-1-(1-methylpiperidin-4-yl)-N-({5-[(trifluoromethyl)sulfanyl]-1H-benzimidazol-2-yl}methyl)-1H-pyrazolo[3,4-b]pyrazin-3-amine] | 2.02
CN1CCC(n2nc(NCc3nc4c(C(F)(F)F)cccc4[nH]3)c3ncc(C4CC4)nc32)CC1 [Example 7, 6-cyclopropyl-1-(1-methylpiperidin-4-yl)-N-{[4-(trifluoromethyl)-1H-benzimidazol-2-yl]methyl}-1H-pyrazolo[3,4-b]pyrazin-3-amine] | > 20
FC1(F)CCC(n2nc(NCc3nc4ccccc4[nH]3)c3ncc(C4CC4)nc32)CC1 [Example 36, N-[(1H-benzimidazol-2-yl)methyl]-6-cyclopropyl-1-(4,4-difluorocyclohexyl)-1H-pyrazolo[3,4-b]pyrazin-3-amine] | > 20
OCCCn1nc(NCc2nc3ccccc3[nH]2)c2ncc(C3CC3)nc21 [Example 60, 3-(3-{[(1H-benzimidazol-2-yl)methyl]amino}-6-cyclopropyl-1H-pyrazolo[3,4-b]pyrazin-1-yl)propan-1-ol] | > 20
CN1CCC(n2nc(NCc3nc4c(F)c(F)ccc4[nH]3)c3ncc(C4CC4)nc32)CC1 [Example 9, 6-cyclopropyl-N-[(4,5-difluoro-1H-benzimidazol-2-yl)methyl]-1-(1-methylpiperidin-4-yl)-1H-pyrazolo[3,4-b]pyrazin-3-amine] | > 20

Continued, values first:

IC50 [µM] | Structure (SMILES)
> 20 | Cc1cnc2c(NCc3nc4ccccc4[nH]3)nn(C3CCN(C)CC3)c2n1 [Example 77, N-[(1H-benzimidazol-2-yl)methyl]-6-methyl-1-(1-methylpiperidin-4-yl)-1H-pyrazolo[3,4-b]pyrazin-3-amine]
> 20 | OCCn1nc(NCc2nc3ccccc3[nH]2)c2ncc(C3CC3)nc21 [Example 66, 2-(3-{[(1H-benzimidazol-2-yl)methyl]amino}-6-cyclopropyl-1H-pyrazolo[3,4-b]pyrazin-1-yl)ethan-1-ol]
> 20 | c1ccc2[nH]c(CNc3nn(CC4CCC4)c4nc(C5CC5)cnc34)nc2c1 [Example 75, N-[(1H-benzimidazol-2-yl)methyl]-1-(cyclobutylmethyl)-6-cyclopropyl-1H-pyrazolo[3,4-b]pyrazin-3-amine]
> 10 | OC1(Cn2nc(NCc3nc4ccccc4[nH]3)c3ncc(C4CC4)nc32)CCCC1 [Example 73, 1-[(3-{[(1H-benzimidazol-2-yl)methyl]amino}-6-cyclopropyl-1H-pyrazolo[3,4-b]pyrazin-1-yl)methyl]cyclopentan-1-ol]
> 20 | O[C@H]1C[C@H](Cn2nc(NCc3nc4ccccc4[nH]3)c3ncc(C4CC4)nc32)C1 [Example 70, trans-3-[(3-{[(1H-benzimidazol-2-yl)methyl]amino}-6-cyclopropyl-1H-pyrazolo[3,4-b]pyrazin-1-yl)methyl]cyclobutan-1-ol]
> 20 | CN1CCC(n2nc(NCc3nc4ccccc4[nH]3)c3ncc(C4CC4)nc32)C1 (single isomer, unassigned) [Example 79, (−) or (+)-N-[(1H-benzimidazol-2-yl)methyl]-6-cyclopropyl-1-(1-methylpyrrolidin-3-yl)-1H-pyrazolo[3,4-b]pyrazin-3-amine]
> 10 | OCC1(Cn2nc(NCc3nc4ccccc4[nH]3)c3ncc(C4CC4)nc32)CCC1 [Example 74, {1-[(3-{[(1H-benzimidazol-2-yl)methyl]amino}-6-cyclopropyl-1H-pyrazolo[3,4-b]pyrazin-1-yl)methyl]cyclobutyl}methanol]
> 20 | CC(CCN(C)C)n1nc(NCc2nc3ccccc3[nH]2)c2ncc(C3CC3)nc21 (single isomer, unassigned) [Example 64, (−) or(+)-N-[(1H-benzimidazol-2-yl)methyl]-6-cyclopropyl-1-[4-(dimethylamino)butan-2-yl]-1H-pyrazolo[3,4-b]pyrazin-3-amine]
> 20 | COCCn1nc(NCc2nc3ccccc3[nH]2)c2ncc(C3CC3)nc21 [Example 65, N-[(1H-benzimidazol-2-yl)methyl]-6-cyclopropyl-1-(2-methoxyethyl)-1H-pyrazolo[3,4-b]pyrazin-3-amine]
> 10 | CC(C)(O)Cn1nc(NCc2nc3ccccc3[nH]2)c2ncc(C3CC3)nc21 [Example 69, 1-(3-{[(1H-benzimidazol-2-yl)methyl]amino}-6-cyclopropyl-1H-pyrazolo[3,4-b]pyrazin-1-yl)-2-methylpropan-2-ol]
> 20 | CN(C)CCn1nc(NCc2nc3ccccc3[nH]2)c2ncc(C3CC3)nc21 [Example 68, N-[(1H-benzimidazol-2-yl)methyl]-6-cyclopropyl-1-[2-(dimethylamino)ethyl]-1H-pyrazolo[3,4-b]pyrazin-3-amine]
> 10 | OC1(Cn2nc(NCc3nc4ccccc4[nH]3)c3ncc(C4CC4)nc32)CCC1 [Example 72, 1-[(3-{[(1H-benzimidazol-2-yl)methyl]amino}-6-cyclopropyl-1H-pyrazolo[3,4-b]pyrazin-1-yl)methyl]cyclobutan-1-ol]
